Assay results from US9249128B2 (priority 2010, dated 2016).
Read-outs that look alike come from different tables or passages of the source.

Experiments:
[1] = tested on: MAGE levels in PC3 and DU145 cells; assay: Lipid (MAGE) measurements in cancer cells; format: cell-based, human; details: 10 μM, 4 h in situ
Method: (§1) Inhibitors were dissolved in DMSO and diluted into media or buffer prior to cell or proteome treatment, respectively. For in vitro treatment, final DMSO concentration was 4%. For in situ treatments of cells for ABPP, lipid measurements, migration, cell-survival, and invasion assays, 2×10^6 cells were seeded in 6 cm dishes (˜100% confluency) 24 h prior to inhibitor pre-treatment (in DMSO at 0.1% final concentration) in serum-free media (3 mL) for the designated time before harvesting cells for ABPP or lipid measurements or before the initiation of migration, cell-survival, and invasion assays.
Lipid measurements were performed in cancer cells as previously described (Chiang et al., 2006). Briefly, frozen cell pellets from cells harvested after 4 h serum starvation were extracted in 2:1:1 chloroform:methanol:Tris buffer pH 8.0 by dounce homogenization with 10 nmol of internal standard C12 MAGE. The organic layer was removed, dried under N2, and resuspended in 120 μL of chloroform, and 30 μL was injected into an Agilent 1100-MSD LC-MS. MAGE levels were quantified by measuring the area under the peak and were normalized to the C12 MAGE internal standard.

[2] = tested on: PC3 and DU145 cells; assay: Serum-free cell survival assay (WST-1); format: cell-based, human; details: 10 μM, 4 h in situ
Method: as §1
(§2) Cell migration, cell survival, and invasion studies were performed as previously described (Nomura et al., 2010). Briefly, migration assays were performed in Transwell chambers (Corning) with 8 μm pore-sized membranes coated with 10 μg/mL collagen at 37° C. for LNCaP (24 h), PC3 (4 h) and DU145 cells (24 h), respectively. Cell survival assays were performed using the Cell Proliferation Reagent WST-1 (Roche) Invasion assays were conducted using the BD Matrigel Invasion Chambers per the manufacturer's protocol. Inhibitors were preincubated for the stated duration before seeding cells into migration, cell-survival, or invasion chambers. Prior to seeding the cells in these chambers, cells were serum-starved for 4 h. Inhibitors were also present during the migration, cell-survival, and invasion assays.

[3] = tested on: PC3 and DU145 cells; assay: Invasion assay (Matrigel chambers); format: cell-based, human; details: 10 μM, 4 h in situ
Method: as §1, §2

[4] = molecular target: T1, HSL (Mus musculus, UniProt P54310); assay: Competitive ABPP of HSL in rosiglitazone-differentiated 3T3-10T1/2 adipocyte proteome; format: biochemical
T1 construct: ABPP analysis of HSL from a rosiglitazone-differentiated 3T3-10T1/2 adipocyte proteome; endogenous in cells; host or cells: rosiglitazone-differentiated 3T3-10T1/2 adipocytes
T1 sequence (P54310 1-759): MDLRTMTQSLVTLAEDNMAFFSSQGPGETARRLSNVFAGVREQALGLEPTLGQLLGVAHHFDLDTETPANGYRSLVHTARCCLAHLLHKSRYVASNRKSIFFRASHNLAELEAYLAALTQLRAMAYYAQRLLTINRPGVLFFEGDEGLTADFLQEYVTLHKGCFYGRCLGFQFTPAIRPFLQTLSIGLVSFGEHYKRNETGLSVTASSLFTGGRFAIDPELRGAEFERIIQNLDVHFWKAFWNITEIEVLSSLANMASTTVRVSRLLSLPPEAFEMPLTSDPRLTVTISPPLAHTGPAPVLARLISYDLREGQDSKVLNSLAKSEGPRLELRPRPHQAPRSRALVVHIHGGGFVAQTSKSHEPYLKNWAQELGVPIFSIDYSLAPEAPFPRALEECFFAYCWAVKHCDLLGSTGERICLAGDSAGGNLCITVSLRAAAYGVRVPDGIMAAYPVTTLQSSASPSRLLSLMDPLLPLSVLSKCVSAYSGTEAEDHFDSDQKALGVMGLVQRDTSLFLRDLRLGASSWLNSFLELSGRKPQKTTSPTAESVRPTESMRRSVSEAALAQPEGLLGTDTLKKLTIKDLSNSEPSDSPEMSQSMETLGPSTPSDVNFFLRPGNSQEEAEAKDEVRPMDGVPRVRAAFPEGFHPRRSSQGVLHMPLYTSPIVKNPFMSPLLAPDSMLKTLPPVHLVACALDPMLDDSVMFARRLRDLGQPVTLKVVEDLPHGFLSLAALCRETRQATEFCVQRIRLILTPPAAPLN
Method: (§3) For ABPP experiments, cell lysate and tissue proteomes were treated with 1 μM FP-rhodamine for 30 min at room temperature (50 μL total reaction volume) as described previously (Nomura et al., 2010). Reactions were quenched with one volume of standard 4×SDS/PAGE loading buffer (reducing), separated by SDS/PAGE (10% acrylamide), and visualized in-gel with a Hitachi FMBio IIe flatbed fluorescence scanner (MiraiBio). Inhibitors were preincubated prior (30 min or 4 h at 37° C. in vitro or in situ, respectively) to the addition of FP-rhodamine.

[5] = molecular target: T2, KIAA1363 (Mus musculus, UniProt Q8BLF1); assay: Gel-based competitive ABPP of KIAA1363 in mouse brain membrane proteome (FP-rhodamine); format: biochemical
T2 construct: ABPP analysis of KIAA1363 activity in mouse brain membrane proteome; from tissue; host or cells: mouse brain (membrane fraction)
T2 sequence (Q8BLF1 1-408): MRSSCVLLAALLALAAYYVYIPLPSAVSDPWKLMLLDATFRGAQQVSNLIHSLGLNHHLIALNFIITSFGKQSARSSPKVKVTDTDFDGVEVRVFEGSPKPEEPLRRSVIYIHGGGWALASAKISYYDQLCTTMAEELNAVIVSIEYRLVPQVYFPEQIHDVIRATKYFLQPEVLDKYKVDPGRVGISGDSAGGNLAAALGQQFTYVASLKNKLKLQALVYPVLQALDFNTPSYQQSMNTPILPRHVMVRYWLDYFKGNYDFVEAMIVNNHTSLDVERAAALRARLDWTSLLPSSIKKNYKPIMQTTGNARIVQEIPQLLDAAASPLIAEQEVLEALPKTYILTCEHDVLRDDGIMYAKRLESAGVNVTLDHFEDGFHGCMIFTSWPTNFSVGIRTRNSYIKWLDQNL
Method: In various embodiments, the invention provides a method of inhibiting a serine hydrolase, comprising contacting the hydrolase with a compound of formula (I), e.g., a compound selected from set of compounds shown in Table 1, below. […] IC50 values were derived from ABPP analysis of KIAA1363 activity in mouse brain membrane proteome and are averages of three replicates. Inhibitors were added to the proteome for 30 min before addition of FP-rhodamine (1 μM, 30 min).
Tissues were Dounce-homogenized in PBS, pH 7.4, followed by a low-speed spin (1,400 g, 5 min) to remove debris. The supernatant was then subjected to centrifugation (100,000×g, 45 min) to provide the cytosolic fraction in the supernatant and the unsoluble fraction as a pellet. The pellet was washed and resuspended in PBS buffer by sonication. Total protein concentration in each fraction was determined using a protein assay kit (Bio-Rad). Samples were stored at −80° C. until use.
as §3

[6] = molecular target: T3, AChE (Mus musculus, UniProt P21836); assay: AChE activity assay with acetylthiocholine in mouse brain proteome; format: biochemical; details: acetylthiocholine hydrolysis in mouse brain membrane proteome
T3 construct: 20 μg of cell lysate or mouse brain membrane proteome; from tissue; host or cells: mouse brain (membrane proteome)
T3 sequence (P21836 32-614): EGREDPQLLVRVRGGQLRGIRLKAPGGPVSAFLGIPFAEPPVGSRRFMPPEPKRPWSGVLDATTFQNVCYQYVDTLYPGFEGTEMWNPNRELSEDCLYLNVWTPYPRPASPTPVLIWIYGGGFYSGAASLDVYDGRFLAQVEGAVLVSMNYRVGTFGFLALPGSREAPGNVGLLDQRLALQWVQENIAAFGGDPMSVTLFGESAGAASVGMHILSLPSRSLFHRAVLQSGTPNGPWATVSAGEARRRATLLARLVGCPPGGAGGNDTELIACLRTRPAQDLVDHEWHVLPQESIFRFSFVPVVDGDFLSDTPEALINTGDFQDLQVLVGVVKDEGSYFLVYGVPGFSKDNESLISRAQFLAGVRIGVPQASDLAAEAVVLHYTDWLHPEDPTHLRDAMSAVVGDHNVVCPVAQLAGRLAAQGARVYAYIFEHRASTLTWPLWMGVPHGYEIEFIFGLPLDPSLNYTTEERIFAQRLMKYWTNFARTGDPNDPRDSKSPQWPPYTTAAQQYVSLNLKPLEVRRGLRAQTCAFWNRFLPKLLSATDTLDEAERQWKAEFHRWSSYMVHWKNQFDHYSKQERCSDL
Method: AChE activity was measured using a method similar to that described previously (Ellman et al., 1961). Briefly, 50 μL of 10 mM acetylthiocholine was added to 200 μL of PBS containing 2 mM DTNB and 20 μg of cell lysate or mouse brain membrane proteome. Absorbance was measured at 412 nm over 5 min, and the rate of product accumulation was calculated from the slope of the absorbance over time. For assays involving preincubation with inhibitors, the reactions were prepared without acetylthiocholine and JW480 was incubated at the indicated concentration for 30 min at 37° C. Acetylthiocholine was then added and the assay was carried out exactly as described above.

[7] = mouse brain membrane proteome, inhibitor 30 min before FP-rhodamine (1 μM, 30 min), averages of three replicates, read-out: IC50 (KIAA1363)
[8] = screened against KIAA1363, Table 1, read-out: IC50 values of less than 1 micromolar
[9] = screened against KIAA1363, Table 1, read-out: IC50 values of around 10 nanomolar (most potent)

Row | Structure (SMILES) | IC50 [5, 7] [nM] | further results
1 | CCCCOC[C@H]1CCCC[C@H]1COCCNC(=O)Oc1ccccc1F [AS115, reference compound] | – | MAGE levels [1]: lower MAGE levels; PC3 and DU145 serum-free cell survival [2]: impair; PC3 and DU145 invasion [3]: impair
2 | Cc1ccc2ccccc2c1OC(=O)NCCc1ccc2ccccc2c1 [JW440, 2-methylnaphthalen-1-yl (2-(naphthalen-2-yl)ethyl)carbamate] | 437 | Cross-reactivity with HSL [4]: little or no activity; IC50 [5, 8]: < 1000 nM; Cross-reactivity with AChE [6]: little or no activity
3 | CCOc1ccccc1OC(=O)NCCc1ccc(OC)cc1 [JW441, 2-ethoxyphenyl 4-methoxyphenethylcarbamate] | > 10000 | –
4 | CCOc1ccccc1OC(=O)NCCc1cccc(OC)c1 [JW442, 2-ethoxyphenyl 3-methoxyphenethylcarbamate] | 1010 | –
5 | CCOc1ccccc1OC(=O)NCCC(c1ccccc1)c1ccccc1 [JW443, 2-ethoxyphenyl (3,3-diphenylpropyl)carbamate] | 1830 | –
6 | CCOc1ccccc1OC(=O)NCC(c1ccccc1)c1ccccc1 [JW444, 2-ethoxyphenyl (2,2-diphenylethyl)carbamate] | 1050 | –
7 | O=C(NCCc1ccc(C(F)(F)F)cc1)Oc1ccc(-n2cccc2)cc1 [JW446, 4-(1H-pyrrol-1-yl)phenyl 4-(trifluoromethyl)phenethylcarbamate] | > 50000 | –
8 | Cc1ccc2ccccc2c1OC(=O)NCCc1ccc(C(F)(F)F)cc1 [JW447, 2-methylnaphthalen-1-yl 4-(trifluoromethyl)phenethylcarbamate] | 858 | –
9 | CCOc1ccccc1OC(=O)NCCc1ccc(C(F)(F)F)cc1 [JW448, 2-ethoxyphenyl 4-(trifluoromethyl)phenethylcarbamate] | 293 | IC50 [5, 8]: < 1000 nM
10 | CC(C)c1ccccc1OC(=O)NCCc1ccc(F)cc1 [JW464, 2-isopropylphenyl 4-fluorophenethylcarbamate] | 11.3 | IC50 [5, 9]: ~10 nM; Cross-reactivity with AChE [6]: cross-reactivity
11 | COc1ccc(OC(=O)NCCc2ccc(F)cc2)c2ccccc12 [JW465, 4-methoxynaphthalen-1-yl 4-fluorophenethylcarbamate] | > 50000 | –
12 | Cc1ccc(C(C)C)c(OC(=O)NCCc2ccc(F)cc2)c1 [JW466, 2-isopropyl-5-methylphenyl 4-fluorophenethylcarbamate] | 197 | IC50 [5, 8]: < 1000 nM
13 | C=CCc1ccccc1OC(=O)NCCc1ccc(F)cc1 [JW468, 2-allylphenyl 4-fluorophenethylcarbamate] | 94.3 | –
14 | CN(C)c1cccc(OC(=O)NCCc2ccc(F)cc2)c1 [JW469, 3-(dimethylamino)phenyl 4-fluorophenethylcarbamate] | 5160 | –
15 | O=C(NCCc1ccc(F)cc1)Oc1ccc(C2CCCCC2)cc1 [JW472, 4-cyclohexylphenyl 4-fluorophenethylcarbamate] | 119 | IC50 [5, 8]: < 1000 nM
16 | O=C(NCCc1ccc(F)cc1)Oc1ccc(-c2ccccc2)cc1 [JW473, [1,1′-biphenyl]-4-yl 4-fluorophenethylcarbamate] | 955 | IC50 [5, 8]: < 1000 nM
17 | O=C(NCCc1ccc(F)cc1)Oc1ccc(C2CCCC2)cc1 [JW474, 4-cyclopentylphenyl 4-fluorophenethylcarbamate] | 795 | –
18 | COc1cccc(OC(=O)NCCc2ccc(F)cc2)c1OC [JW477, 2,3-dimethoxyphenyl 4-fluorophenethylcarbamate] | > 10000 | –
19 | CC(C)c1ccccc1OC(=O)NCCc1ccc2c(c1)OCO2 [JW481, 2-isopropylphenyl (2-(benzo[d][1,3]dioxol-5-yl)ethyl)carbamate] | 11.3 | IC50 [5, 9]: ~10 nM
20 | CC(C)c1ccccc1OC(=O)NCCc1ccc(C(F)(F)F)cc1 [JW482, 2-isopropylphenyl 4-(trifluoromethyl)phenethylcarbamate] | 9.4 | IC50 [5, 9]: ~10 nM
